In the supplement of paper PMC10307832 one finds relative viability data, which are given here for two cell lines.

Compound in the experiment “BAY61-3606 + Vorinostat”: COC1=C(C=C(C=C1)C2=CC3=NC=CN3C(=N2)NC4=C(C=CC=N4)C(=O)N)OC [BAY61-3606] + O=C(CCCCCCC(=O)Nc1ccccc1)NO [Vorinostat] (partner 1 µM)
Kind of experiment: relative viability (nuclei count vs DMSO), 5 days (fraction); higher = more cells survive. In outline: (§1)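 Values are medians from duplicate plates. Each reflects relative viability, defined as the nuclei count of treated wells over that of vehicle wells. Lung cancer cell lines in 1536-well plates were pin-tool dosed one day after seeding with one drug alone or with a fixed anchor-drug dose plus five library-drug doses (not always all listed) in √10 steps, then fixed, stained and imaged at 4× after 5 days.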

Compound in the experiment “BAY61-3606 + AZD7762”: COC1=C(C=C(C=C1)C2=CC3=NC=CN3C(=N2)NC4=C(C=CC=N4)C(=O)N)OC [BAY61-3606] + NC(=O)Nc1cc(-c2cccc(F)c2)sc1C(=O)N[C@H]1CCCNC1 [AZD7762] (partner 0.2 µM)
Described as above. In outline: as §1

As to NCI-H1993, the relative viability with BAY61-3606 + Vorinostat (first compound 0.02 µM) was determined as 1.06; with BAY61-3606 + Vorinostat (first compound 0.06325 µM), 0.718; with BAY61-3606 + Vorinostat (first compound 0.2 µM), 0.756; with BAY61-3606 + Vorinostat (first compound 0.6325 µM), 0.0488; in the experiment with BAY61-3606 + Vorinostat (first compound 2 µM), 0.67; in the experiment with BAY61-3606 + AZD7762 (first compound 0.02 µM) it was 0.823. The relative viability with BAY61-3606 + AZD7762 (first compound 0.06325 µM) came to 0.824; with BAY61-3606 + AZD7762 (first compound 0.2 µM) it was 0.614; with BAY61-3606 + AZD7762 (first compound 0.6325 µM), 0.869; with BAY61-3606 + AZD7762 (first compound 2 µM) it was 0.739.

For the cell line HCC-78, the relative viability with BAY61-3606 + Vorinostat (first compound 0.02 µM) was 0.432; with BAY61-3606 + Vorinostat (first compound 0.06325 µM) it was 0.423; with BAY61-3606 + Vorinostat (first compound 0.2 µM) it was 0.444; with BAY61-3606 + Vorinostat (first compound 0.6325 µM), 0.553; with BAY61-3606 + Vorinostat (first compound 2 µM), 0.41; with BAY61-3606 + AZD7762 (first compound 0.02 µM), 0.645. For the same cell line, the relative viability with BAY61-3606 + AZD7762 (first compound 0.06325 µM) came out at 0.51; with BAY61-3606 + AZD7762 (first compound 0.2 µM) it was 0.652; with BAY61-3606 + AZD7762 (first compound 0.6325 µM) it was 0.487; in the experiment with BAY61-3606 + AZD7762 (first compound 2 µM) it was 0.674.
